# Measurements published in patent US20220000964A1, “Compositions and Methods for Regulating Homeostasis of Chondrocytes, Extracellular Matrix, Articular Cartilage, and Phenotype of Arthritis” (Unigen, Inc., priority 2020, published 2022).
# “And” between values parts separate entries of the source, which are not always exact repeats. Equal values may be shown once. Marks after values point to notes of the source that are not given here.
# Experiments:
# Assay type in all cases: in vivo, rat
# [1] = test system: type II collagen synthesis and degradation; assay: CIA rats, Z score of type II collagen synthesis and degradation (PIIANP, uCTX-II)
# Source text: Previously, Garnero et al measured these markers [Type II collagen synthesis and degradation: N-propeptide of type IIA procollagen (PIIANP) and urine CTX-II, respectively] and correlated them to findings on radiographs and arthroscopy of OA patients. […] They explained their observation that these patients have an uncoupling effect between collagen synthesis and degradation, which is leaning more towards the progression of OA.
# Adapting their method, we calculated the Z-factor for cartilage synthesis and degradation using data from PIIANP and uCTX-II, respectively. For an intervention to drive the OA catabolic progression towards anabolic or regenerative activities, the Z-score values have to come close to zero.
# uCTX-II = assay: CIA rats, urinary CTX-II ELISA normalized to creatinine
# Protocol: The presence of the cartilage degradation biomarker uCTX-II was measured using the Rat CTX-II ELISA kit from Mybiosource (product #: MBS2880519) as follows: diluted urine was added to a microplate coated with CTX-II antibody and allowed to bind for 2 h at 37° C. […] The microplate was washed thoroughly to remove unbound urine and antibody before an enzyme-conjugated avidin antibody was added to bind to the biotin-conjugated antibody for specific detection. The avidin antibody was allowed to bind for 1 h at 37° C. Washing was repeated, enzyme substrate was added, and the plate was developed for 30 min at 37° C. After the addition of stop solution, the absorbance was read at 450 nm, multiplied by dilution factor, and the concentration of CTX-II calculated based on the absorbance readings of a CTX-II standard curve. CTX-II amount was normalized to the amount of Creatinine in the urine using the Creatinine Parameter Assay Kit from R and D Systems (product #: […] Absorbance was read at 492 nm and Creatinine amount in urine was calculated based on the absorbance readings of a Creatinine standard curve.
# MMP-13 = assay: CIA rats, serum MMP-13 ELISA; conditions: for MMP-13: serum
# Protocol: The presence of cartilage degradative enzyme MMP-13 was measured using the Rat Matrix Metallo-Proteinase 13 (MMP-13) ELISA kit from Mybiosource (product #: MBS702112 for MMP-13) as follows: serum was added to a microplate coated with MMP-13 antibody and allowed to bind for 2 h at 37° C. The samples were removed and then a biotin-conjugated MMP-13 antibody was added and allowed to bind for 1 h at 37° C. The microplate was thoroughly washed, and an avidin-conjugated Horse Radish Peroxidase was added and allowed to bind for 1 h at 37° C. Enzyme substrate was then added, and the plate was developed for 30 min at 37° C. After the addition of stop solution, the absorbance was read at 450 nm, multiplied by dilution factor, and the concentration of MMP-13 calculated based on the absorbance readings of an MMP-13 standard curve
# The presence of cartilage degradative enzyme MMP-13 was measured using the Rat Matrix Metalloproteinase 13 (MMP-13) ELISA kit from Mybiosource (product #: MBS702112) as follows: undiluted serum was added to a microplate coated with MMP-13 antibody and allowed to bind for 2 hours at 37° C. The samples were removed, and then a biotin-conjugated MMP-13 antibody was added and allowed to bind for 1 hour at 37° C. The microplate was thoroughly washed, and an avidin-conjugated Horse Radish Peroxidase was added and allowed to bind for 1 hour at 37° C. Enzyme substrate was then added, and the plate was developed for 30 minutes at 37° C. After the addition of stop solution, the absorbance was read at 450 nm and the concentration of MMP-13 calculated based on the absorbance readings of an MMP-13 standard curve.
# PIIANP = assay: CIA rats, PIIANP ELISA (synovial fluid or serum)
# Protocol: The presence of cartilage regeneration/rebuilding biomarker PIIANP was measured using the Rat Procollagen Type IIA N-Prop (PIIANP) ELISA kit from Mybiosource (product #: MBS9399069) as follows: synovial fluid was added to a microplate coated with PIIANP antibody as well as an HRP-conjugated PIIANP antibody and allowed to bind for one hour at 37° C. The microplate was thoroughly washed, and a Chromagen solution was added and allowed to bind for 15 minutes at 37° C. After the addition of stop solution, the absorbance was read at 450 nm and the concentration of PIIANP calculated based on the absorbance readings of a PIIANP standard curve.
# The level of cartilage regeneration biomarker PIIANP was measured using the Rat Procollagen Type IIA N-Prop (PIIANP) ELISA kit from Mybiosource (product #: MBS9399069) as follows: undiluted serum was added to a microplate coated with PIIANP antibody as well as an HRP-conjugated PIIANP antibody and allowed to bind for one hour at 37° C. The microplate was thoroughly washed, and a Chromagen solution was added and allowed to bind for 15 minutes at 37° C. After the addition of stop solution, the absorbance was read at 450 nm and the concentration of PIIANP calculated based on the absorbance readings of a PIIANP standard curve.
# TNF-α = assay: CIA rats, serum TNF-α ELISA; conditions: for TNF-α: serum
# Protocol: The presence of catabolic cytokines IL-1β, TNF-α, or IL-6 was measured using Rat IL-1, TNF-α, and IL-6 Quantikine ELISA kit from R and D Systems (product #: RLB00 for IL-1β, RTA00 for TNF-α, and R6000B for IL-6) as follows: diluted serum was added to a microplate coated with polyclonal IL-1, TNF-α, or IL-6 antibody and allowed to bind for 2 h at room temperature. The microplate was washed thoroughly to remove unbound serum and then a polyclonal enzyme-conjugated IL-1β, TNF-α, or IL-6 antibody was added and allowed to bind for 2 h at room temperature. Washing was repeated, enzyme substrate was added, and the plate was developed for 30 min at room temperature. After the addition of stop solution, the absorbance was read at 450 nm, multiplied by dilution factor, and the concentration of IL-1β/TNF-α/IL-6 calculated based on the absorbance readings of an IL-1β/TNF-α/TL-6 standard curve.
# The presence of catabolic cytokines IL-6/TNF-α was measured using the Rat IL-6/TNF-α Quantikine ELISA kit from RandD Systems as follows: undiluted serum was added to a microplate coated with polyclonal IL-6/TNF-α antibody and allowed to bind for 2 hours at room temperature. The microplate was washed thoroughly to remove unbound serum, and then a polyclonal enzyme-conjugated IL-6/TNF-α antibody was added and allowed to bind for 2 hours at room temperature. Washing was repeated, enzyme substrate was added, and the plate was developed for 30 minutes at room temperature. After the addition of stop solution, the absorbance was read at 450 nm and the concentration of IL-6/TNF-α calculated based on the absorbance readings of an IL-6/TNF-α standard curve.
# CIA rats [2] = assay: CIA rats, ankle diameter; design: Ankle diameter (Mean): unit not given here; conditions: for % Inhibition Ankle diameter (AUC): vs CIA + vehicle
# CIA rats [3] = assay: Collagen-induced arthritis (CIA) rats, arthritis severity index
# Protocol: Male Sprague Dawley rats (7-8 weeks old, n=40) were purchased from Charles River Laboratories Inc. (Wilmington, Mass., USA) and acclimated upon arrival for two weeks before being assigned randomly to their respective treatment groups: G1=Normal control (−) (n=10/group), G2=collagen-induced arthritis (CIA)+Vehicle (0.5% Carboxy Methylcellulose) (n=10/group), G3=CIA+Methotrexate (+) (75 μg/kg) (n=10/group), and G4=CIA+AMK (+) (200 mg/kg) (n=10/group). Treatment was initiated two weeks before model induction and lasted for an additional three weeks thereafter. Collagen type-II (Lot #845) from bovine nasal septum and Incomplete Freund's adjuvant (IFA) (Lot #SLBR0642v) were purchased from Elastin Products Company (Owensville, Mich., USA) and Sigma (St. Louise, Mo., USA), respectively. All materials were kept at suitable temperatures as recommended by the manufacturer. At the time of preparation, 60 mg of collagen was weighed and added to pre-chilled 15 mL 0.1 M acetic acid in a 60 mL-sized flask with a magnetic stirrer to yield 4 mg/mL concentration (Brand, et al., 2003; Rosloniec et al., 2001).
# The mixture was dissolved by gently stirring overnight at 4° C. The next morning, the dissolved collagen was emulsified with equal volume of IFA (15 mL) to achieve a final concentration of 2 mg/mL collagen. Rats sedated with isoflurane were then primed intradermally with 400 μL of the emulsified collagen at the base of their tail at two sites using a 1 mL syringe fitted with a 26 G needle. The dissolved mixture was kept in an ice bucket and stirred between groups at the time of injection to preserve uniform consistency. On the seventh day, rats were inoculated with a booster dose of 2 mg/mL type II collagen emulsified with equal volume of incomplete adjuvant at 100 μL/rat/site.
# Clinical findings such as arthritis severity index, paw thickness, ankle diameter (using Digital Absolute, Model #PK-0505CPX, Mitutoyo Corporation, Kawasaki, Japan), and pain sensitivity (using Randall Salitto, IITC Life Science Inc., Woodland Hills, Calif., USA) were monitored during the course of study. Urine was collected from overnight fasted rats using metabolic cages after three weeks of treatment post-model induction. At Necropsy, serum from the cardiac and synovial lavage (100 μL of saline was injected into the articular cavity and aspirated back to the syringe) for biomarkers and ankle joint for histopathology were collected from each animal.
# Linear trapezoid rule was used to calculate area under the curve (AUC) for days 9-21. % Inhibition={(Mean value of treatment-mean value of CIA+)/(Mean value of control-mean value of CIA)}*100.
# Male Sprague Dawley rats (7-8 weeks old, n=40) were purchased from Charles River Laboratories Inc. (Wilmington, Mass., USA) and acclimated upon arrival for two weeks before being assigned randomly to their respective treatment groups: G1=Normal control (−) (n=10/group), G2=collagen-induced arthritis (CIA)+Vehicle (0.5% Carboxy Methylcellulose) (n=10/group), G3=CIA+Methotrexate (+) (0.5 mg/kg) (n=10/group), and G4=CIA+AP (+) (200 mg/kg) (n=10/group). Treatment was initiated two weeks before model induction and lasted for an additional three weeks thereafter. Collagen type-II (Lot #845) from bovine nasal septum and Incomplete Freund's adjuvant (IFA) (Lot #SLBR0642v) were purchased from Elastin Products Company (Owensville, Mich., USA) and Sigma (St. Louise, Mo., USA), respectively. All materials were kept at suitable temperatures as recommended by the manufacturer. At the time of preparation, 60 mg of collagen was weighed and added to pre-chilled 15 mL 0.1 M acetic acid in a 60 mL-sized flask with a magnetic stirrer to yield 4 mg/mL concentration (Brand, et al., 2003; Rosloniec et al., 2001). The mixture was dissolved by gently stirring overnight at 4° C. The next morning, the dissolved collagen was emulsified with equal volume of IFA (15 mL) to achieve a final concentration of 2 mg/mL collagen.
# [4] = AMK CIA study, MTX 75 μg/kg, AMK 200 mg/kg oral
# [5] = AP study, MTX (0.5 mg/mL), AP (200 mg/kg) oral 3 weeks
# [6] = AP CIA study, Methotrexate 0.5 mg/kg, AP 200 mg/kg oral
# [7] = AMK CIA study, MTX 75 μg/kg, AMK 200 mg/kg oral, AUC days 9-21
# [8] = AMK study, MTX 75 μg/kg, AMK 200 mg/kg
# [9] = AP study, MTX 0.5 mg/kg, AP 200 mg/kg
smiles,measurement,setting,value
CN(Cc1cnc2nc(N)nc(N)c2n1)c1ccc(C(=O)N[C@@H](CCC(=O)O)C(=O)O)cc1 [Methotrexate],"Z score, Imbalance (catabolic − anabolic), Mean ± SE","[1]; (CTX-II)-(PIIANP), Methotrexate 0.5 mg/kg (printed), AMK 200 mg/kg",1.30 ± 0.33
same,"Z score, Regeneration, Mean ± SE","[1]; from PIIANP, SDs from mean of normal control rats, Methotrexate 0.5 mg/kg (printed), AMK 200 mg/kg",−0.90 ± 0.16
same,improvement in driving OA progression to normalcy relative to vehicle treated CIA rats,[1]; from imbalance Z score,56.4%
same,"Z score, Degradation, Mean ± SE","[1]; from uCTX-II, SDs from mean of normal control rats, Methotrexate 0.5 mg/kg (printed), AMK 200 mg/kg",0.39 ± 0.34
same,inhibition of urine CTX-II (cartilage degradation) vs vehicle-treated CIA,uCTX-II; [4],26.4%
same,CTX-II,"uCTX-II; urine, CIA rats, MTX 75 μg/mL (printed), AMK 200 mg/kg",2500.8 ± 355.9 ng/g creatinine
same,serum MMP-13 inhibition compared to vehicle-treated CIA rats,MMP-13; [4],78.6%
same,MMP-13,"MMP-13; AMK study, MTX (75 μg/mL), AMK (200 mg/kg)",9.67 ± 1.80 pg/mL
same,MMP-13,MMP-13; [5],86.57 ± 45.31 pg/mL
same,increase in synovial PIIANP vs vehicle-treated CIA,PIIANP; [4],69.8%
same,increase in serum PIIANP vs CIA + vehicle,PIIANP; [6],47%
same,PIIANP,"PIIANP; serum, AP study, MTX (0.5 mg/mL), AP (200 mg/kg) oral 3 weeks",6.53 ± 1.4 ng/mL
same,PIIANP,"PIIANP; synovial fluid, CIA rats, MTX 75 μg/mL (printed), AMK 200 mg/kg",0.43 ± 0.16 ng/mg
same,serum TNF-α inhibition compared to diseased control,TNF-α; [4],86.2%
same,serum TNF-α level vs vehicle-treated CIA,TNF-α; [6],significantly reduced
same,TNF-α,"TNF-α; AMK study, AMK (200 mg/kg)",0.37 ± 1.12 pg/mL
same,TNF-α,TNF-α; [5],10.2 ± 0.37 pg/mL
same,percent reduction in ankle diameter (AUC) vs vehicle-treated CIA,CIA rats [2]; [7],65.94% and 65.9%
same,AUC(d9-d21) (Mean ± SD) Ankle diameter,CIA rats [2]; [8],39.11 ± 0.21
same,percent reduction in ankle diameter (AUC) vs vehicle-treated CIA,CIA rats [2]; [6],93.6%
same,AUC(d9-d21) (Mean ± SD) Ankle diameter,CIA rats [2]; [9],30.94 ± 0.11
same,Ankle diameter (Mean),"CIA rats [2]; Boost, MTX 75 μg/kg, AMK 200 mg/kg",6.08
same,Ankle diameter (Mean),"CIA rats [2]; Day 9, MTX 75 μg/kg, AMK 200 mg/kg",6.12
same,Ankle diameter (Mean),"CIA rats [2]; Day 10, MTX 75 μg/kg, AMK 200 mg/kg",6.17
same,Ankle diameter (Mean),"CIA rats [2]; Day 11, MTX 75 μg/kg, AMK 200 mg/kg",6.33
same,Ankle diameter (Mean),"CIA rats [2]; Day 12, MTX 75 μg/kg, AMK 200 mg/kg",6.50*
same,Ankle diameter (Mean),"CIA rats [2]; Day 13, MTX 75 μg/kg, AMK 200 mg/kg",6.67*
same,Ankle diameter (Mean),"CIA rats [2]; Day 14, MTX 75 μg/kg, AMK 200 mg/kg",6.85*
same,Ankle diameter (Mean),"CIA rats [2]; Day 15, MTX 75 μg/kg, AMK 200 mg/kg",7.06*
same,Ankle diameter (Mean),"CIA rats [2]; Day 16, MTX 75 μg/kg, AMK 200 mg/kg",7.28*
same,Ankle diameter (Mean),"CIA rats [2]; Priming, AP study, MTX 0.5 mg/kg, AP 200 mg/kg",0.10
same,Ankle diameter (Mean),"CIA rats [2]; Priming, MTX 75 μg/kg, AMK 200 mg/kg",6.03
same,Ankle diameter (Mean),"CIA rats [2]; day 17, MTX 75 μg/kg, AMK 200 mg/kg",7.32*
same,Ankle diameter (Mean),"CIA rats [2]; day 19, MTX 75 μg/kg, AMK 200 mg/kg",6.03†
same,Ankle diameter (Mean),"CIA rats [2]; day 21, MTX 75 μg/kg, AMK 200 mg/kg",6.08†
same,% Inhibition Ankle diameter (AUC),"CIA rats [2]; MTX 75 μg/kg, AMK 200 mg/kg",65.94%
same,% Inhibition Ankle diameter (AUC),"CIA rats [2]; MTX 0.5 mg/kg, AP 200 mg/kg",93.59%
same,percent reduction of area under the arthritis severity curve vs vehicle-treated CIA,CIA rats [3]; [7],62.55% and 62.6%
same,AUC(d9-d21) (Mean ± SD) Arthritis index,CIA rats [3]; [8],4.87 ± 0.21
same,average arthritis severity score at the end of the study,CIA rats [3]; [6],1.1±0.17
same,percent reduction of area under the arthritis severity curve vs vehicle-treated CIA,CIA rats [3]; [6],78.8%
same,AUC(d9-d21) (Mean ± SD) Arthritis index,CIA rats [3]; [9],5.00 ± 0.48
same,"Arthritis Index, Mean","CIA rats [3]; Boost, MTX 0.5 mg/kg, AP 200 mg/kg",0.00
same,"Arthritis Index, Mean","CIA rats [3]; CIA, MTX 75 μg/kg, AMK 200 mg/kg oral, Boost",0.00
same,"Arthritis Index, Mean","CIA rats [3]; CIA, MTX 75 μg/kg, AMK 200 mg/kg oral, Day 9",0.00
same,"Arthritis Index, Mean","CIA rats [3]; CIA, MTX 75 μg/kg, AMK 200 mg/kg oral, Day 10",0.00
same,"Arthritis Index, Mean","CIA rats [3]; CIA, MTX 75 μg/kg, AMK 200 mg/kg oral, Day 11",0.00
same,"Arthritis Index, Mean","CIA rats [3]; CIA, MTX 75 μg/kg, AMK 200 mg/kg oral, Day 12",0.23*
same,"Arthritis Index, Mean","CIA rats [3]; CIA, MTX 75 μg/kg, AMK 200 mg/kg oral, Day 13",0.46^¥
